Patent US10322107B2, “N-methyl-N-(1-phenyl-2-(1-pyrrolidinyl)ethyl)-2-aminophenylacetamide derivatives agonists for the kappa opioid receptor” (Nektar Therapeutics, priority 2014, dated 2019)
Read-outs that look alike come from different tables or passages of the source.

What was measured:
[1] = molecular target: recombinant human kappa (KOR) opioid receptor (Homo sapiens, UniProt P41145); test: Competitive radioligand binding at KOR ([3H]diprenorphine), CHO-K1 membranes
[2] = molecular target: T1, KOR (kappa opioid receptor) (Homo sapiens, UniProt P41145); test: Inhibition of cAMP accumulation in forskolin-stimulated CHO-K1 cells stably expressing KOR; type: cell-based
T1 construct: expressed in transfected cells

[3] = molecular target: T2, recombinant human mu (MOR) opioid receptor (Homo sapiens, UniProt P35372); test: Competitive radioligand binding at MOR ([3H]naloxone), single concentration, CHO-K1 membranes; settings: 10 μM test compound; percent inhibition of specific [3H]naloxone (4 nM) binding; read-out: Mu Opioid Receptor Mu Receptor Inhibition % inhib @ 10 uM
T2 construct: expressed in transfected cells; host or cells: CHO-K1 cells (membranes)
Protocol: The binding affinities of certain compounds of the present invention were evaluated using radioligand binding assays in membranes prepared from CHO-K1 cells expressing recombinant human kappa (KOR) or mu (MOR) opioid receptors.
Competition binding experiments were conducted by incubating membrane protein to equilibrium in triplicate in the presence of a fixed concentration of radioligand and increasing concentrations of test compound for evaluation of binding to KOR or single concentration (10 μM) of test compound for evaluation of binding to MOR in 101 μL final volume. The radioligands used were specific for each receptor type, and the assay conditions are described in Table 1. Following incubations, the membranes were rapidly filtered through GF/B filter plate (presoaked with 0.5% polyethyleneimine), washed five times with cold 50 mM Tris-HCl, pH 7.5, and the bound radioactivity was then measured by liquid scintillation counting. Non-specific binding was measured in the presence of excess ligand; this value was subtracted from the total binding to yield the specific binding at each test concentration.
Ki (affinity of test compound) was obtained using the Cheng Prusoff correction using experimental Kd (affinity of radioligand) values that were previously determined under these assay conditions. For MOR binding, compounds were tested at one concentration, 10 μM, to evaluate its ability to inhibit specific radioligand binding. The values are expressed as percent inhibition of specific binding and greater than 50% inhibition of binding was considered to be significant.

[4] = Cheng Prusoff correction using experimental Kd of radioligand, read-out: Kappa Opioid Receptor Ki
[5] = read-out: Kappa Opioid Receptor IC50

Compound	Ki [1, 4]	IC50 [1, 5]	EC50 [2]	inhibition at 10 µM [3]	IC50 [1]	Ki [1]	IC50 ([1]; inhibition of specific [3H]diprenorphine (1 nM) binding, one experiment in triplicate, read-out: Kappa Opioid Receptor IC50)
CN([C@H](CN1CC[C@H](O)C1)c1ccc(OCCO)cc1)S(=O)(=O)Cc1ccc(Cl)c(Cl)c1 [Example 22, 1-(3,4-Dichlorophenyl)-N-{(1S)-1-[4-(2-hydroxyethoxy)phenyl]-2-[(3S)-3-hydroxypyrrolidin-1-yl]ethyl}-N-methylmethanesulfonamide]	32.2 nM	247 nM	15.5 nM	-10.3%			
Cc1noc(C)c1S(=O)(=O)Nc1cccc([C@@H](CN2CCCC2)N(C)C(=O)Cc2ccc(Cl)c(Cl)c2)c1 [Example 6, (S)-2-(3,4-dichlorophenyl)-N-(1-(3-(3,5-dimethylisoxazole-4-sulfonamido)phenyl)-2-(pyrrolidin-1-yl)ethyl)-N-methylacetamide]	0.39 nM	3.01 nM	1.15 nM	84.6%			
CC(O)CS(=O)(=O)Nc1cccc([C@@H](CN2CCCC2)N(C)C(=O)Cc2ccc(C(F)(F)F)cc2)c1 (stereo partly drawn) [Example 13, N-((1S)-1-(3-(2-hydroxypropylsulfonamido)phenyl)-2-(pyrrolidin-1-yl)ethyl)-N-methyl-2-(4-(trifluoromethyl)phenyl)acetamide]	0.1 nM	0.75 nM	0.067 nM	95.4%			
Cc1ccc(CC(=O)N(C)[C@H](CN2CC[C@H](O)C2)c2ccc(OCCO)cc2)cn1 [Example 16, N-{(1S)-1-[4-(2-Hydroxyethoxy)phenyl]-2-[(3S)-3-hydroxypyrrolidin-1-yl]ethyl}-N-methyl-2-(6-methylpyridin-3-yl)acetamide]	1.34 nM	10.3 nM	0.294 nM	28.4%			
CC(O)CS(=O)(=O)Nc1cccc([C@@H](CN2CCCC2)N(C)C(=O)Cc2ccc(Cl)c(Cl)c2)c1 (stereo partly drawn) [Example 8, 2-(3,4-dichlorophenyl)-N-((1S)-1-(3-(2-hydroxypropylsulfonamido)phenyl)-2-(pyrrolidin-1-yl)ethyl)-N-methylacetamide]	0.05 nM	0.35 nM	0.06 nM	99%			
CN(C(=O)Cc1ccc(F)c(F)c1)[C@H](CN1CC[C@H](OCCO)C1)c1ccc(OCCO)cc1 [Example 21, 2-(3,4-Difluorophenyl)-N-{(1S)-1-[4-(2-hydroxyethoxy)phenyl]-2-[(3S)-3-(2-hydroxyethoxy)pyrrolidin-1-yl]ethyl}-N-methylacetamide]			33.3 nM	0%	1450 nM	189 nM	
CN(C(=O)Cc1ccc(Cl)c(Cl)c1)[C@H](CN1CCCC1)c1cccc(NS(=O)(=O)c2cn(C)nc2C(F)(F)F)c1 [Example 5, (S)-2-(3,4-dichlorophenyl)-N-methyl-N-(1-(3-(1-methyl-3-(trifluoromethyl)-1H-pyrazole-4-sulfonamido)phenyl)-2-(pyrrolidin-1-yl)ethyl)acetamide]	1.01 nM	7.74 nM	1.35 nM	97%			
CN(C(=O)C(c1ccccc1)c1ccccc1)[C@H](CN1CCCC1)c1cccc(NS(=O)(=O)CCOCC(F)(F)F)c1 [Example 11, (S)—N-methyl-2,2-diphenyl-N-(2-(pyrrolidin-1-yl)-1-(3-(2-(2,2,2-trifluoroethoxy)ethylsulfonamido)phenyl)ethyl)acetamide]	45 nM	345 nM	28.8 nM	57.6%			
CC(O)CS(=O)(=O)Nc1cccc([C@@H](CN2CCCC2)N(C)C(=O)C(c2ccccc2)c2ccccc2)c1 (stereo partly drawn) [Example 12, N-((1S)-1-(3-(2-hydroxypropylsulfonamido)phenyl)-2-(pyrrolidin-1-yl)ethyl)-N-methyl-2,2-diphenylacetamide]	48.8 nM	374 nM	18.5 nM	47%			
CN([C@H](CN1CC[C@H](O)C1)c1ccc(OCCO)cc1)S(=O)(=O)Cc1ccc(C(F)(F)F)cc1 [Example 23, N-{(18)-1-[4-(2-Hydroxyethoxy)phenyl]-2-[(38)-3-hydroxypyrrolidin-1-yl]ethyl}-N-methyl-1-[4-(trifluoromethyl)phenyl]methanesulfonamide]			53.6 nM	-2%	1080 nM	141 nM	
CN(C(=O)Cc1ccc(F)cc1F)[C@H](CN1CC[C@H](OCCO)C1)c1ccc(OCCO)cc1 [Example 20, 2-(2,4-difluorophenyl)-N—((S)-1-(4-(2-hydroxyethoxy)phenyl)-2-((S)-3-(2-hydroxyethoxy)pyrrolidin-1-yl)ethyl)-N-methylacetamide]	7490 nM		2670 nM	-29.4%			57400 nM
CN(C(=O)Cc1ccc(Cl)c(Cl)c1)[C@H](CN1CCCC1)c1cccc(NS(=O)(=O)c2cn(C)c(=O)n(C)c2=O)c1 [Example 2, (S)-2-(3,4-dichlorophenyl)-N-(1-(3-(1,3-dimethyl-2,4-dioxo-1,2,3,4-tetrahydropyrimidine-5-sulfonamido)phenyl)-2-(pyrrolidin-1-yl)ethyl)-N-methylacetamide]	0.7 nM	5.36 nM	0.311 nM	87.1%			
COCCN(CCOC)S(=O)(=O)Nc1cccc([C@@H](CN2CCCC2)N(C)C(=O)Cc2ccc(Cl)c(Cl)c2)c1 [Example 9, (S)—N-(1-(3-((N,N-bis(2-methoxyethyl)sulfamoyl)amino)phenyl)-2-(pyrrolidin-1-yl)ethyl)-2-(3,4-dichlorophenyl)-N-methylacetamide]	0.47 nM	3.58 nM	0.5 nM	101%			
COCCN(C)S(=O)(=O)Nc1cccc([C@@H](CN2CCCC2)N(C)C(=O)Cc2ccc(Cl)c(Cl)c2)c1 [Example 7]	0.09 nM	0.67 nM	0.19 nM	99.9%			
CN(C(=O)Cc1ccc(Cl)c(Cl)c1)[C@H](CN1CCCC1)c1cccc(NS(=O)(=O)c2ccc(Cl)nc2)c1 [Example 3, (S)—N-(1-(3-(6-chloropyridine-3-sulfonamido)phenyl)-2-(pyrrolidin-1-yl)ethyl)-2-(3,4-dichlorophenyl)-N-methylacetamide]	0.36 nM	2.79 nM	0.29 nM	94.2%			
CN(C(=O)Cc1ccc(Cl)c(Cl)c1)[C@H](CN1CCCC1)c1cccc(NS(=O)(=O)c2cccnc2Cl)c1 [Example 4, (S)—N-(1-(3-(2-chloropyridine-3-sulfonamido)phenyl)-2-(pyrrolidin-1-yl)ethyl)-2-(3,4-dichlorophenyl)-N-methylacetamide]	6.48 nM	49.7 nM	1.75 nM	91.8%			
CN(C(=O)Cc1ccc(Cl)c(Cl)c1)[C@H](CN1CCCC1)c1cccc(NS(=O)(=O)c2cc(Cl)c(Cl)s2)c1 [Example 10, (S)-2-(3,4-dichlorophenyl)-N-(1-(3-(4,5-dichlorothiophene-2-sulfonamido)phenyl)-2-(pyrrolidin-1-yl)ethyl)-N-methylacetamide]	1.25 nM	9.61 nM	3.74 nM	95.9%			
CN(C(=O)Cc1ccc(Cl)c(Cl)c1)[C@H](CN1CCCC1)c1cccc(NS(=O)(=O)c2ccc(C#N)c(C(F)(F)F)c2)c1 [Example 1, (S)—N-(1-(3-(4-cyano-3-(trifluoromethyl)phenylsulfonamido)phenyl)-2-(pyrrolidin-1-yl)ethyl)-2-(3,4-dichlorophenyl)-N-methylacetamide]	4.84 nM	37.1 nM	2 nM	89%			
CN(C(=O)Cc1nccs1)[C@H](CN1CC[C@H](O)C1)c1ccc(OCCO)cc1 [Example 18, N-{(1S)-1-[4-(2-Hydroxyethoxy)phenyl]-2-[(3S)-3-hydroxypyrrolidin-1-yl]ethyl}-N-methyl-2-(1,3-thiazol-2-yl)acetamide]	17.6 nM		4.67 nM	-3.2%	135 nM		
CN(C(=O)Cc1ccc(Cl)c(Cl)c1)[C@H](CN1CC(O)C1)c1ccc(OCCO)cc1 [Example 24, (S)-2-(3,4-dichlorophenyl)-N-(2-(3-hydroxyazetidin-1-yl)-1-(4-(2-hydroxyethoxy)phenyl)ethyl)-N-methylacetamide]	2.71 nM	20.8 nM	0.78 nM	40.1%			
CN(C(=O)Cc1ccc(F)cc1F)[C@H](CN1CC[C@H](O)C1)c1ccc(OCCO)cc1 [Example 15, 2-(2,4-Difluorophenyl)-N-{(1S)-1-[4-(2-hydroxyethoxy)phenyl]-2-[(3S)-3-hydroxypyrrolidin-1-yl]ethyl}-N-methylacetamide]	0.69 nM	5.27 nM	0.164 nM	23.5%			
